PMC9408887 (International Journal of Molecular Sciences, 2022)
Like-named read-outs stand apart in the source and are kept apart here.

Key:
Bla2 [1] = target: T1, Bla2 (Bacillus anthracis, UniProt Q93T40); experiment: biochemical; format: biochemical
Bla2 [2] = target: T1, Bla2; format: biochemical
Bla2 [3] = conditions: cited from earlier work

T1 sequence (Q93T40 1-256): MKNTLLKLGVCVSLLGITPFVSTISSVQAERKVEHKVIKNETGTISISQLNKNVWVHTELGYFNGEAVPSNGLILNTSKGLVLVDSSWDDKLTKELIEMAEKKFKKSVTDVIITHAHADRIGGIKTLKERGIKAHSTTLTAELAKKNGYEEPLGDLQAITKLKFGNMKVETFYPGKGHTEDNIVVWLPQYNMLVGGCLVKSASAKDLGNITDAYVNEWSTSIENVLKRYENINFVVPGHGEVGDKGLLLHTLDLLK

3-chloro-N-hydroxy-4-(7-(hydroxyamino)-7-oxoheptyl)benzamide [Compound 4]
IC50 (Bla2 [1]; pH 7, read-out: IC50): 20 ± 5 µM | Ki (Bla2 [2]): 6.4 ± 1.7 µM | mode of inhibition (Bla2 [2]): competitive inhibition | Ki (Bla2 [2]; pH 7): 6.4 ± 1.7 µM

CCCCCCCOc1cccc(C(=O)NO)c1 [3-(heptyloxy)-N-hydroxybenzamide]
inhibition (Bla2 [3]): no inhibition

O=C(CCCCCOc1cccc(C(=O)NO)c1)NO [N-hydroxy-3-((6-(hydroxyamino)-6-oxohexyl)oxy)benzamide]
inhibition (Bla2 [3]): significant inhibition

O=C(CCCCCCC(=O)Nc1ccccc1)NO [SAHA, suberoylanilide hydroxamic acid, reference compound]
IC50 (Bla2 [1]): > 100 µM

N-hydroxy-4-(7-(hydroxyamino)-7-oxoheptyl)-3-methoxybenzamide [Compound 6]
IC50 (Bla2 [1]; pH 7, read-out: IC50): 14.9 ± 9.8 µM | Ki (Bla2 [2]): 4.7 ± 1.4 µM | mode of inhibition (Bla2 [2]): competitive inhibition | Ki (Bla2 [2]; pH 7): 4.7 ± 1.4 µM
